Data published in article PMC3268023, “Simple Preparation of Pacific Cod Trypsin for Enzymatic Peptide Synthesis” (Journal of Amino Acids, 2011).
Counter-ions that a name gives are not always drawn.

Key:
[1] = system: Pacific cod trypsin (PcT); test: inverse substrate hydrolysis, absorbance at […] nm, Lineweaver-Burk; assay type: biochemical, Gadus macrocephalus; conditions: 50 mM Tris-HCl pH 8.0, 10 mM CaCl2, 30°C, substrate in DMSO (10 of 200 μL)
[2] = system: Pacific cod trypsin (PcT); test: p-nitroaniline release at […] nm, Lineweaver-Burk; assay type: biochemical, Gadus macrocephalus; conditions: 50 mM Tris-HCl pH 8.0, 10 mM CaCl2, 30°C, substrate in DMSO (10 of 200 μL)

| Km [2] [µM] | SMILES | Km [1] [µM] |
| --- | --- | --- |
| – | C[C@H](NC(=O)OC(C)(C)C)C(=O)Oc1ccc(C(=N)N)cc1 [5a, N-(tert-butoxycarbonyl)-L-alanine p-amidinophenyl esters] | 1.5 |
| 37 | N=C(N)NCCC[C@H](NC(=O)c1ccccc1)C(=O)Nc1ccc([N+](=O)[O-])cc1 [BAPA, N-benzoyl-L-arginine p-nitroanilide hydrochloride] | – |
